Assay results reported in patent US5654309A, “Pyridopyrimidine derivatives, their production and use” (Takeda Chemical Industries, Ltd., priority 1992, dated 1997).

How the values were obtained:
[1] = molecular target: T1, Endothelin-A Receptor (human) (Homo sapiens, UniProt P25101); test: Endothelin Receptor-Assay, [125I]endothelin-1 binding, insect cell (Sf9) membrane having human endothelin-A receptors; conditions: human ETA, 25° C., 60 minutes, concentration causing PMB=50%
T1 construct: expressed in transfected cells; host or cells: Sf9 insect cells
T1 sequence (P25101 21-427): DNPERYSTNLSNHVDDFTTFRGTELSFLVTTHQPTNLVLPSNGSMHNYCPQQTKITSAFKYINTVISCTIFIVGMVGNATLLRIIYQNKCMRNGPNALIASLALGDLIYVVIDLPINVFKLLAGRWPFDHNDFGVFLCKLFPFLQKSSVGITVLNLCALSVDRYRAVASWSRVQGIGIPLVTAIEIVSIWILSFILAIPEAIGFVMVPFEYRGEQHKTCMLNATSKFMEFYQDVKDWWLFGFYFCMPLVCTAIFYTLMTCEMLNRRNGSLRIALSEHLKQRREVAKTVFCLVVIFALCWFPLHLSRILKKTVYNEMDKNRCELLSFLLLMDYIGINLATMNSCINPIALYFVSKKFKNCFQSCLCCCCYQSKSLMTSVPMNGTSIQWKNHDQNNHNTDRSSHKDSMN
Protocol: (§1) Endothelin (ET) receptors were prepared by diluting fractions of insect cell (Sf9) membrane having human endothelin-A (ETA) receptors or human endothelin-B (ETB) receptors appeared, with an assay buffer [20 mM Tris-HCl, 2 mM EGTA (ethyleneglycol bis(2-aminoethylether) tetra acetic acid), 5 mM magnesium acetate, 0.1% BSA (bovine serum albumin), 0.03% NAN3, 0.5 mM PMS F (phenyl methyl sulfonyl fluoride), 20 μg/ml leupeptin, 4 μg/ml E-64 (products of the Peptide Institute), 1 μg/ml pepstatin, (pH 7.2)] respectively in a concentration of 1.4 μg/ml in the former case and 0.7 μg/ml in the latter case.
(§2) To 100 μl of each portion was added 5 nM [^125 I] endothelin-1 (2 μl). A dimethylsulfoxide solution (3 μl) of the sample was added thereto and incubated at 25° C. for 60 minutes.
(§3) And, to determine the maximum binding amount (B0) and non-specific binding amount (NSB), lots to which a dimethyl sulfoxide solution (3 μl) or a dimethyl sulfoxide solution (3 μl) containing endothelin-1 (10^-5 M) had been added, were also incubated.
(§4) These lots were supplemented with 0.05% CHAPS (3-[(3-[…])dimethylammonio]-1-propanesulfonate)-assay buffer (1.5 ml), subjected to filtration through a glass fiber filter GF/F (trade name; product of Wattman Ltd. (England)), and then washed with the same buffer (1.5 ml).
(§5) Radioactivity on the filter was counted in a gamma-counter to determine the Percent Maximum Binding (PMB) in accordance with the aforesaid calculation formula. The concentration causing PMB=50% was determined as IC50 value.

[2] = molecular target: T2, Endothelin-B Receptor (bovine) (Bos taurus, UniProt P28088); test: Endothelin Receptor-Assay, [125I]endothelin-1 binding, bovine cerebral membrane; conditions: 25° C., 60 minutes, concentration causing PMB=50%
T2 construct: a fraction of bovine cerebral membrane; from tissue; host or cells: bovine cerebral membrane
T2 sequence (P28088 27-441): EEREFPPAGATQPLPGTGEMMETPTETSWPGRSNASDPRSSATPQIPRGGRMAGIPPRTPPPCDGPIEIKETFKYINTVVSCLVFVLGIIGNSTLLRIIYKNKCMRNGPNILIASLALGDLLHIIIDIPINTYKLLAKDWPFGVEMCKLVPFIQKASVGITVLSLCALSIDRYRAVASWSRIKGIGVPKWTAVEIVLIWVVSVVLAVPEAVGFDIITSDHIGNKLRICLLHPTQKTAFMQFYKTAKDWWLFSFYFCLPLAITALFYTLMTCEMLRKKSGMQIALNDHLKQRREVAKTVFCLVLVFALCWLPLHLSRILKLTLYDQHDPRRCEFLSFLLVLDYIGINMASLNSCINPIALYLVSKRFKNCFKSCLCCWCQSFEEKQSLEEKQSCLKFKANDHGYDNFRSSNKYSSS
Protocol: Endothelin-B receptor was prepared by diluting a fraction of bovine cerebral membrane with the same assay buffer as mentioned above to make a solution having a concentration of 180 μg/ml.
as §2
And, to determine the maximum binding amount (B0) and non-specific binding amount (NSB), lots to which a dimethyl sulfoxide solution (3 μl) or a dimethyl sulfoxide solution (3 μl) containing endothelin-1 (10^-5 M) was added were also incubated.
as §4
(§6) Radioactivity on the filter was counted in a gamma-counter to determine the Percent Maximum Binding (PMB) in accordance with the following calculation formula.
The concentration causing PMB=50% was determined as IC50 value.
PMB=[(B-NSB)/(B0 -NSB)]×100

[3] = molecular target: T3, Endothelin-A Receptor (porcine) (Sus scrofa, UniProt Q29010); test: Endothelin Receptor-Assay, [125I]endothelin-1 binding, porcine cardiac ventricular muscle membrane; conditions: 25° C., 60 minutes, concentration causing PMB=50%
T3 construct: a fraction of porcine cardiac ventricular muscle membrane; from tissue; host or cells: porcine cardiac ventricular muscle membrane
T3 sequence (Q29010 21-427): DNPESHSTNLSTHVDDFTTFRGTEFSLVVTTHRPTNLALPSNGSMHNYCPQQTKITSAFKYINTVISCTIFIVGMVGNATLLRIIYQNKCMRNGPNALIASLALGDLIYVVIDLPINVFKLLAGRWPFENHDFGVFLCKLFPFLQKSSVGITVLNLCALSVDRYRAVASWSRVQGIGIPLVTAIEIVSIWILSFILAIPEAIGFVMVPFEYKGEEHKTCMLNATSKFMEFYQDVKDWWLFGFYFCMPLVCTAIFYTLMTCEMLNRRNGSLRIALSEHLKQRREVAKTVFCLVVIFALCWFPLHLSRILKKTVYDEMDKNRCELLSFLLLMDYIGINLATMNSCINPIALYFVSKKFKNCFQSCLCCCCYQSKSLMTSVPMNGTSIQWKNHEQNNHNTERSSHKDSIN
Protocol: Endothelin-A receptors was prepared by diluting a fraction of porcine cardiac ventricular muscle membrane with an assay buffer [20 mM Tris-HCl, 2 mM EGTA (ethyleneglycol bis(2-aminoethylether) tetra acetic acid), 5 mM magnesium acetate, 0.1% BSA (bovine serum albumin), 0.03% NAN3, 0.5 mM PMSF (phenyl methyl sulfonyl fluoride), 20 μg/ml leupeptin, 4 μg/ml E-64 (products of the Peptide Institute), 1 μg/ml pepstatin, (pH 7.2)] to make a solution of the fraction of porcine cardiac ventricular membrane (12 μg/ml).
as §2
And, to determine the maximum binding amount (B0) and non-specific binding amount (NSB), lots to which a dimethyl sulfoxide solution (3 μl) or a dimethyl sulfoxide solution (3 μl) containing endothelin-1 (10^-5 M) was added were also incubated. […]
as §6
The concentration causing PMB=50% was determined as IC50 value. […]

[4] = molecular target: T4, Endothelin-B Receptor (human) (Homo sapiens, UniProt P24530); test: Endothelin Receptor-Assay, [125I]endothelin-1 binding, insect cell (Sf9) membrane having human endothelin-B receptors; conditions: human ETB, 25° C., 60 minutes, concentration causing PMB=50%
T4 construct: expressed in transfected cells; host or cells: Sf9 insect cells
T4 sequence (P24530 27-442): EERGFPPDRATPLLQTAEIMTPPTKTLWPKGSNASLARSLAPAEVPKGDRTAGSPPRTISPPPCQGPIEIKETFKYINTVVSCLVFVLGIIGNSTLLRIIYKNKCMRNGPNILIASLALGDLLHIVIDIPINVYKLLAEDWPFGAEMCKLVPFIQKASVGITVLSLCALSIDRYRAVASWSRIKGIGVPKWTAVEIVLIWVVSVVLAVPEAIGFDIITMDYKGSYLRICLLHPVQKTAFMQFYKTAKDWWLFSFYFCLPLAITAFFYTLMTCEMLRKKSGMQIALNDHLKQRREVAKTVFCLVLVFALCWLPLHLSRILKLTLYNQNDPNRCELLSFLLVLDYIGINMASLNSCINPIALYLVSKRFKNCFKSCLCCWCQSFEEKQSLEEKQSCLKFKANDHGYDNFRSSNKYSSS
Protocol: as §1, §2, §3, §4, §5

| Structure (SMILES) | IC50 [1] [µM] | IC50 [2] [µM] | IC50 [3] [µM] | IC50 [4] [µM] |
| --- | --- | --- | --- | --- |
| COc1ccccc1Cn1c(=O)n(CC(=O)O)c(=O)c2c(-c3ccc4ccccc4n3)c(C(=O)O)c(C(C)C)nc21 [Example 14, 2,4(1H,3H)-dioxo-6-carboxy-7-isopropyl-1-(2-methoxybenzyl)-5-(2-quinolyl)pyrido[2,3-d]pyrimidine-3-acetic Acid] | 3.7 | – | – | 67 |
| COc1ccccc1Cn1c(=O)n(CC(=O)OC(C)(C)C)c(=O)c2c(-c3ccc4ccccc4n3)c(C(=O)O)c(C(C)C)nc21 [Example 16, t-Butyl [2,4(1H,3H)-dioxo-6-carboxy-7-isopropyl-1-(2-methoxybenzyl)-5-(2-quinolyl)pyrido[2,3-d]pyrimidine]-3-acetate] | 1.6 | – | – | 69 |
| CCOC(=O)Cn1c(=O)c2c(-c3cc(=O)c4ccccc4[nH]3)c(C(=O)O)c(C(C)C)nc2n(Cc2ccccc2OC)c1=O [Example 19 Compound No. 2] | 0.07 | – | – | 65 |
| COc1ccccc1Cn1c(=O)n(CC(=O)O)c(=O)c2c(-c3cc(=O)c4ccccc4[nH]3)c(C(=O)O)c(C(C)C)nc21 [Example 20] | 0.12 | – | – | 14 |
| CSc1ccccc1Cn1c(=O)n(CC(=O)O)c(=O)c2c(-c3cc(=O)c4ccccc4[nH]3)c(C(=O)O)c(C(C)C)nc21 [Example 21 Compound No. 9] | 0.056 | – | – | 14 |
| COc1ccccc1Cn1c(=O)n(CC(=O)O)c(=O)c2c(-c3ccc4ccccc4n3)c(C(=O)OCC(C)C)c(C(C)C)nc21 [Example 27, 2,4(1H,3H)-dioxo-6-isobutoxycarbonyl-7-isopropyl-1-(2-methoxybenzyl)-5-(2-quinolyl)pyrido[2,3-d]pyrimidine-3-acetic Acid] | 4.5 | – | – | 47 |
| CCOC(=O)c1c(C(C)C)nc2c(c1-c1ccc3ccccc3n1)c(=O)n(CC(=O)O)c(=O)n2Cc1ccccc1OC [Example 28 Compound No. 8] | 1.1 | – | – | 76 |
| CCOC(=O)Cn1c(=O)c2c(-c3cc(=O)c4ccccc4[nH]3)c(C(=O)O)c(C(C)C)nc2n(Cc2ccccc2SC)c1=O [Example 31, Ethyl [2,4(1H,3H)-dioxo-6-carboxy-7-isopropyl-1-(2-methylthiobenzyl)-5-[2-(4-quinolonyl)]pyrido[2,3-d]pyrimidine]-3-acetate] | 0.12 | – | – | 88 |

The next lines start with the values.

| IC50 [1] [µM] | IC50 [2] [µM] | IC50 [3] [µM] | IC50 [4] [µM] | Structure (SMILES) |
| --- | --- | --- | --- | --- |
| 11 | 64 | 11 | – | CCOC(=O)c1c(C(C)C)nc2c(c1-c1ccc(C)cc1)c(=O)n(CC(=O)O)c(=O)n2Cc1ccccc1OC [Example 10, 2,4(1H,3H)-dioxo-6-ethoxycarbonyl-7-isopropyl-1-(2-methoxbenzyl)-5-(4-tolyl)pyrido[2,3-d]pyrimidine-3-acetic Acid] |
| 22 | 130 | 18 | – | CCOC(=O)c1c(C)nc2c(c1-c1ccc(OC)cc1)c(=O)n(CC(=O)O)c(=O)n2Cc1ccccc1OC [Example 12, 2,4(1H,3H)-dioxo-6-ethoxycarbonyl-7-methyl-1-(2-methoxybenzyl)-5-(4-methoxyphenyl)pyrido[2,3-d]pyrimidine-3-acetic Acid] |
| 0.89 | – | – | 95 | COc1ccc(Cn2c(=O)n(CC(=O)O)c(=O)c3c(-c4ccc5ccccc5n4)c(C(=O)O)c(C(C)C)nc32)c(OC)c1 [Example 15 Compound No. 4] |
| 0.71 | – | – | 19 | CCOC(=O)Cn1c(=O)c2c(-c3ccc4ccccc4n3)c(C(=O)O)c(C(C)C)nc2n(Cc2ccccc2OC)c1=O [Example 17 Compound No. 1] |
| 0.15 | – | – | 69 | COc1ccccc1Cn1c(=O)n(CC(=O)OC(C)(C)C)c(=O)c2c(-c3cc(=O)c4ccccc4[nH]3)c(C(=O)O)c(C(C)C)nc21 [Example 18, t-Butyl [2,4(1H,3H)-dioxo-6-carboxy-7-isopropyl-1-(2-methoxbenzyl)-5-[2-(4-quinolonyl)]pyrido[2,3-d]pyrimidine]-3-acetate] |
| 0.98 | – | – | 23 | CCOC(=O)Cn1c(=O)c2c(-c3cc(=O)c4ccccc4[nH]3)c(C(=O)O)c(C(C)C)nc2n(Cc2ccc(OC)cc2OC)c1=O [Example 19 Compound No. 5] |
| 0.92 | – | – | 4.3 | CCOC(=O)c1c(C(C)C)nc2c(c1-c1cc(=O)c3ccccc3[nH]1)c(=O)n(CC(=O)O)c(=O)n2Cc1ccccc1OC [Example 23, 2,4(1H,3H)-dioxo-6-ethoxycarbonyl-7-isopropyl-1-(2-methoxybenzyl)-5-[2-(4-quinolonyl)]pyrido[2,3-d]pyrimidine-3-acetic Acid] |
| 0.57 | – | – | 95 | COc1ccccc1Cn1c(=O)n(CC(=O)O)c(=O)c2c(-c3ccc4ccccc4n3)c(C(=O)OCCC#N)c(C(C)C)nc21 [Example 29, 2,4(1H,3H)-dioxo-6-cyanoethoxycarbonyl-7-isopropyl-1-(2-methoxybenzyl)-5-(2-quinolyl)pyrido[2,3-d]pyrimidine-3-acetic Acid] |
